Literature values, collected in patent US20130101569A1, “HAIR GROWTH STIMULANT” (priority 2011, published 2013).

How the values were obtained:
[1] = test system: healthy, older adults with mild memory complaints; settings: taken for six months; 485 subjects aged 55 and older
[2] = not carbohydrates

| Compound | heart rate [1] | memory and learning [1] | cravings for fat [2] |
| --- | --- | --- | --- |
| CC/C=C\C/C=C\C/C=C\C/C=C\C/C=C\C/C=C\CCC(=O)O [algal DHA, 4Z,7Z,10Z,13Z,16Z,19Z)-docosa-4,7,10,13,16,19-hexaenoic acid] | decreased heart rate | improved memory and learning | – |
| Chromium(III) picolinate [chromium picolinate] | – | – | reduce cravings for fat |
